US7511145B2 (Genelabs Technologies, Inc., priority 2003, dated 2009)

Target: T1, HCV-NS5b (Hepatitis C virus genotype 1b, UniProt Q9WMX2)
T1 construct: (His)6 (C); made in house; host or cells: XL-1 cells (E. coli), IPTG-inducible plasmid, nickel-NTA purification
Assay: HCV-NS5b enzyme assay (incorporation of radiolabeled UTP)
Type: biochemical
Settings: for inhibition at 33 µM: enzyme inhibition at compound concentration of 33 uM; for inhibition at 100 µM: read-out: % inh@100, enzyme inhibition at compound concentration of 100 uM
From the text: The coding sequence of NS5b protein was cloned by PCR from pFKI389luc/NS3-3′/ET as described by Lohmann, V., et al. (1999) Science 285, 110-113 using the following primers: […]
The cloned fragment was missing the C terminus 21 amino acid residues. The cloned fragment was inserted into an IPTG-inducible expression plasmid that provided an epitope tag (His)6 at the carboxy terminus of the protein.
The recombinant enzyme was expressed in XL-1 cells and after induction of expression, the protein was purified using affinity chromatography on a nickel-NTA column. Storage condition was 10 mM Tris-HCl pH 7.5, 50 mM NaCl, 0.1 mM EDTA, 1 mM DTT, 20% glycerol at −20° C.
The polymerase activity was assayed by measuring incorporation of radiolabeled UTP into a RNA product using a biotinylated, heteropolymeric template, which included a portion of the HCV genome. Typically, the assay mixture (50 μL) contained 10 mM Tris-HCl (pH 7.5), 5 mM MgCl2, 0.2 mM EDTA, 10 mM KCl, 1 unit/μL RNAsin, 1 mM DTT, 10 μM each of NTP, including [^3H]-UTP, and 10 ng/μL heteropolymeric template. Test compounds were initially dissolved in 100% DMSO and further diluted in aqueous buffer containing 5% DMSO. Typically, compounds were tested at concentrations between 1 nM and 100 μM. Reactions were started with addition of enzyme and allowed to continue at 37° C. for 2 hours. Reactions were quenched with 8 μL of 100 mM EDTA and reaction mixtures (30 μL) were transferred to streptavidin-coated scintillation proximity microtiter plates (FlashPlates) and incubated at 4° C. overnight. Incorporation of radioactivity was determined by scintillation counting.
Shown in Table IX below are the values for enzyme inhibition measured at compound concentrations of 100 and 33 uM, (% inh@[…] and % inh@33, respectively). The percent inhibition values are calculated from the differential incorporation of radioactivity compared to a control reaction without compound: % inhibition=100−[(CountsINH−CountsBKG)/CountsCTRL−CountsBKG)×100 where CountsINH is the signal of the testwell with inhibitor, CountsBKG is the background signal and CountsCTRL is the signal of a testwell without inhibitor.

Compound | inhibition at 33 µM [%] | inhibition at 100 µM [%]
O=C(O)[C@@H]1C[C@@H](O)CN1C(=O)c1ccc2c(c1)nc(-c1ccc3nc(-c4ccccc4)cnc3c1)n2C1CCCCC1 [Compound 248, 1-[1-Cyclohexyl-2-(2-phenyl-quinoxalin-6-yl)-1H-benzoimidazole-5-carbonyl]-4-hydroxy-pyrrolidine-2-carboxylic acid] | 47.4 | 86.8
CC[C@H](C)[C@H](NC(=O)c1ccc2c(c1)nc(-c1ccc3nc(-c4ccccc4)cnc3c1)n2C1CCCCC1)C(=O)O [Compound 249, 2-{[1-Cyclohexyl-2-(2-phenyl-quinoxalin-6-yl)-1H-benzoimidazole-5-carbonyl]-amino}-3-methyl-pentanoic acid] | 94.5 | 97.2
c1ccc(-c2cnc3cc(-c4nc5cc(-c6nn[nH]n6)ccc5n4C4CCCCC4)ccc3n2)cc1 [Compound 258, 6-[1-cyclohexyl-5-(1H-tetrazol-5-yl)-1H-benzimidazol-2-yl]-2-phenylquinoxaline] | 97 | 98
O=C(c1ccc(-c2ccc(Cl)cc2)c(-c2ccc3cc(-c4nc5cc(-c6nnn[nH]6)ccc5n4C4CCCCC4)ccc3n2)c1)N1CCCC1 [Compound 259, (4′-chloro-2-{6-[1-cyclohexyl-5-(1H-tetrazol-5-yl)-1H-benzoimidazol-2-yl]-quinolin-2-yl}-biphenyl-4-yl)-pyrrolidin-1-yl-methanone] | 99.7 | 99.4
C[C@H](NC(=O)c1ccc2c(c1)nc(-c1ccc3nc(-c4ccccc4)cnc3c1)n2C1CCCCC1)C(=O)O [Compound 310, 2-[(2-(2-phenyl-quinoxalin-6-yl)-1-cyclohexyl-1H-benzoimidazole-5-carbonyl)-amino]-propionic acid] | 83.2 | 98.3
O=C(O)CNC(=O)c1ccc2c(c1)nc(-c1ccc3nc(-c4ccccc4)cnc3c1)n2C1CCCCC1 [Compound 311, {[1-Cyclohexyl-2-(2-phenyl-quinoxalin-6-yl)-1H-benzoimidazole-5-carbonyl]-amino}-acetic acid] | 83 | 93.3
O=C(O)c1ccc2c(c1)nc(-c1ccc3cc(-c4ccccc4)cnc3c1)n2C1CCCCC1 [Compound 351, 1-cyclohexyl-2-(3-phenyl-quinolin-7-yl)-1H-benzoimidazole-5-carboxylic acid] | 94.9 | 98.1
O=C(O)c1ccc2c(c1)nc(-c1ccc3nc(-c4ccccc4Br)ccc3c1)n2C1CCCCC1 [Compound 352, 2-[2-(2-bromo-phenyl)-quinolin-6-yl]-1-cyclohexyl-1H-benzoimidazole-5-carboxylic acid] | 94.2 | 98.8
O=C(O)c1ccc2[nH]c(-c3ccc4nc(-c5ccccc5-c5ccc(Cl)cc5)ccc4c3)nc2c1 [Compound 353, 2-[2-(4′-Chloro-biphen-2-yl)-quinolin-6-yl]-1H-benzoimidazole-5-carboxylic acid] | 67.3 | 67.5
O=C(O)c1ccc2c(c1)nc(-c1ccc3nc(-c4cc(Br)ccc4O)ccc3c1)n2C1CCCCC1 [Compound 354, 2-[2-(5-Bromo-2-hydroxy-phenyl)-quinolin-6-yl]-1-cyclohexyl-1H-benzoimidazole-5-carboxylic acid] | 98 | 101
O=C(O)c1ccc2c(c1)nc(-c1ccc3nc(-c4cccnc4)ccc3c1)n2C1CCCCC1 [Compound 355, 1-cyclohexyl-2-(2-pyridin-3-yl-quinolin-6-yl)-1H-benzoimidazole-5-carboxylic acid] | 72.3 | 89.3
COc1ccc(-c2ccc(Cl)cc2)c(-c2ccc3cc(-c4nc5cc(C(=O)O)ccc5n4C4CCCCC4)ccc3n2)c1 [Compound 356, 2-[2-(4′-Chloro-4-methoxy-biphen-2-yl)-quinolin-6-yl]-1-cyclohexyl-1H-benzoimidazole-5-carboxylic acid] | 101 | 100
O=C(O)c1ccc2c(c1)nc(-c1ccc3nc(-c4cccc5ccccc45)ccc3c1)n2C1CCCCC1 [Compound 357, 1-cyclohexyl-2-(2-naphthalen-1-yl-quinolin-6-yl)-1H-benzoimidazole-5-carboxylic acid] | 98.8 | 101
Nc1ccc(-c2ccc3cc(-c4nc5cc(C(=O)O)ccc5n4C4CCCCC4)ccc3n2)cc1 [Compound 358, 2-[2-(4-amino-phenyl)-quinolin-6-yl]-1-cyclohexyl-1H-benzoimidazole-5-carboxylic acid] | 85.1 | 95.3
O=C(O)COc1cccc(-c2ccc3cc(-c4nc5cc(C(=O)O)ccc5n4C4CCCCC4)ccc3n2)c1 [Compound 359, 2-[2-(3-Carboxymethoxy-phenyl)-quinolin-6-yl]-1-cyclohexyl-1H-benzoimidazole-5-carboxylic acid] | 97.3 | 99.6
O=C(O)c1ccc2c(c1)nc(-c1ccc3nc(-c4cc(OCC(=O)N5CCCC5)ccc4-c4ccccc4)ccc3c1)n2C1CCCCC1 [Compound 360, 1-cyclohexyl-2-{2-[4-(2-oxo-2-pyrrolidin-1-yl-ethoxy)-biphen-2-yl]-quinolin-6-yl}-1H-benzoimidazole-5-carboxylic acid] | 97.6 | 97.9
NC(=O)CNC(=O)c1ccc(-c2ccc(Cl)cc2)c(-c2ccc3cc(-c4nc5cc(C(=O)O)ccc5n4C4CCCCC4)ccc3n2)c1 [Compound 361, 2-{2-[4-(Carbamoylmethyl-carbamoyl)-4′-chloro-biphen-2-yl]-quinolin-6-yl}-1-cyclohexyl-1H-benzoimidazole-5-carboxylic acid] | 100 | 98.7
CNC(=O)c1ccc(-c2ccccc2)c(-c2ccc3cc(-c4nc5cc(C(=O)O)ccc5n4C4CCCCC4)ccc3n2)c1 [Compound 362, 1-cyclohexyl-2-[2-(4-methylcarbamoyl-biphen-2-yl)-quinolin-6-yl]-1H-benzoimidazole-5-carboxylic acid] | 101 | 98.4
Nc1c(Cl)cc(-c2ccc3cc(-c4nc5cc(C(=O)O)ccc5n4C4CCCCC4)ccc3n2)cc1Cl [Compound 363, 2-[2-(4-amino-3,5-dichloro-phenyl)-quinolin-6-yl]-1-cyclohexyl-1H-benzoimidazole-5-carboxylic acid] | 98.4 | 101
O=C(O)c1ccc2c(c1)nc(-c1ccc3nc(-c4ccc(O)cc4O)ccc3c1)n2C1CCCCC1 [Compound 364, 1-cyclohexyl-2-[2-(2,4-dihydroxy-phenyl)-quinolin-6-yl]-1H-benzoimidazole-5-carboxylic acid] | 98.6 | 101
COc1ccc(-c2ccc(C#N)cc2)c(-c2ccc3cc(-c4nc5cc(C(=O)O)ccc5n4C4CCCCC4)ccc3n2)c1 [Compound 365, 2-[2-(4′-cyano-4-methoxy-biphen-2-yl)-quinolin-6-yl]-1-cyclohexyl-1H-benzoimidazole-5-carboxylic acid] | 102 | 103
COc1ccc(-c2ccc(F)c(Cl)c2)c(-c2ccc3cc(-c4nc5cc(C(=O)O)ccc5n4C4CCCCC4)ccc3n2)c1 [Compound 366, 2-[2-(3′-chloro-4′-fluoro-4-methoxy-biphen-2-yl)-quinolin-6-yl]-1-cyclohexyl-1H-benzoimidazole-5-carboxylic acid] | 97.6 | 99.4
COc1ccc(-c2cccc(C)c2)c(-c2ccc3cc(-c4nc5cc(C(=O)O)ccc5n4C4CCCCC4)ccc3n2)c1 [Compound 367, 1-cyclohexyl-2-[2-(4-methoxy-3′-methyl-biphen-2-yl)-quinolin-6-yl]-1H-benzoimidazole-5-carboxylic acid] | 103 | 101
NC(=O)[C@H](Cc1cnc[nH]1)NC(=O)c1ccc2cc(-c3nc4cc(C(=O)O)ccc4n3C3CCCCC3)ccc2n1 [Compound 368] | 51.2 | 79.5
O=C(O)c1ccc2c(c1)nc(-c1ccc3nc(-c4ccccc4-c4ccncc4)ccc3c1)n2C1CCCCC1 [Compound 369, 1-Cyclohexyl-2-[2-(2-pyrid-4-yl-phenyl)-quinolin-6-yl]-1H-benzoimidazole-5-carboxylic acid] | 96.2 | 98.8
